Test results: patent publication US9051350B2, “Macrocyclic antiproliferation agents and methods of treatment” (University of Florida Research Foundation, Inc., priority 2008, dated 2015)
*1 amine or outer side, *2 acyl side, *3 side chain or, on linkers, in order; H or OH if unused. Where a SMILES comes first, the peptide text is derived from it. [ ]: non-standard residue; d: D form. ξ: configuration not given here. dβ3hAla(2R-Me) = C[C@@H](N[*:1])[C@@H](C)C(=O)[*:2]; X1 = CN(C(Cc1ccccc1)C1=N[C@H](C(=O)[*:2])CS1)[*:1]; X2 = CC[C@@H](N[*:1])C1=NC(C(=O)[*:2])CS1; d(aThr) = C[C@@H](O)[C@@H](N)C(=O)O; dNMeL = CN[C@H](CC(C)C)C(=O)O; ξPhLac = O=C(O)C(O)Cc1ccccc1; NMeV = CN[C@H](C(=O)O)C(C)C

Legend:
Assay in all cases: Cell viability assay (MTT), antiproliferative activity
Assay type in all cases: cell-based
[1] = test system: human osteosarcoma (U2OS); settings: U2OS cells, 48 hours of incubation
Description: (§1) Cell culture medium was purchased from Invitrogen and fetal bovine serum (FBS) from Hyclone. Cells were propagated and maintained in DMEM medium (high glucose) supplemented with 10% FBS at 37° C. humidified air and 5% CO2.
(§2) HT29 colon adenocarcinoma cells were used for the bioassay-guided fractionation. To determine cell type selectivity, cells from four cancer cell lines (U2OS, HeLa, HT29 and IMR-32) were plated in 96-well format and incubated at 37° C. (5% CO2) for 24 hours. A dilution series of 1 in DMSO (1 μL) was then added, and after further 48 hours of incubation the cell viability was quantified using a standard assay kit based on MTT dye according to the manufacturer's instructions (Promega).

[2] = test system: colorectal adenocarcinoma (HT29); settings: Homo sapiens, HT-29, HT29 cells, 48 hours of incubation
Description: as §1, §2

[3] = test system: neuroblastoma (IMR-32); settings: Homo sapiens, IMR-32 cells, 48 hours of incubation
Description: as §1, §2

[4] = test system: cervical carcinoma (HeLa); settings: Homo sapiens, HeLa cells, 48 hours of incubation
Description: as §1, §2

`CC[C@H]1NC(=O)[C@@H]2CSC(=N2)C(Cc2ccccc2)N(C)C(=O)[C@@H]2CCCN2C(=O)[C@H](C(C)C)N(C)C(=O)C(Cc2ccccc2)OC(=O)[C@H](C)[C@@H](C)NC(=O)[C@@H]([C@@H](C)O)NC(=O)[C@@H](CC(C)C)N(C)C(=O)C2CSC1=N2` (stereo partly drawn) [Compound 1, grassypeptolide] (cyclo([NMeV]P[X1][X2][dNMeL][d(aThr)][dβ3hAla(2R-Me)][ξPhLac])) was tested, and the IC50 [1] was 2200 nM, the IC50 [2] was 1500 nM and the IC50 [3] was 4200 nM. It also gave an IC50 [4] of 1000 nM.
